Measured values: publication PMC10746543, “Design principles for cyclin K molecular glue degraders” (Nature Chemical Biology, 2023)
“And” between values parts separate entries of the source, which are not always exact repeats. Identical values can stand only once. Like-named read-outs stand apart in the source and are kept apart here.

Key:
[1] = tested on: cyclin K–eGFP degradation reporter; test: Cyclin K reporter stability analysis (dual-color cyclin K–eGFP reporter); format: cell-based, human; settings: source data sheet correlations
Method in brief: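 Values reflect cyclin K–eGFP levels after a 5 h exposure, expressed as the green-to-red fluorescence ratio and scaled to three vehicle-treated controls. Measurements came from HEK293T–Cas9 reporter cells by flow cytometry.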

HEK293T cells = test: Drug sensitivity assay (CellTiter-Glo viability) with or without MLN4924 pretreatment; format: cell-based, human; settings: Supplementary Table 2
Method in brief: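 Viability of HEK293T–Cas9 cells was compared after 3-day drug treatment with or without 100 nM MLN4924 pretreatment (2 h, versus DMSO). Values are CellTiter-Glo signals relative to DMSO controls.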

CDK9–cyclin T = molecular target: T1, CDK9–cyclin T (Homo sapiens, UniProt P50750); test: Lanthascreen kinase binding assay, CDK9; settings: for Lanthascreen TR-FRET signal (raw ratio), sheet CDK9: first titration set (r1), duplicates
T1 construct: purchased Thermo Fisher
Method: (§1) Lanthascreen experiments were performed using commercially available reagents (Thermo Fisher) and according to the manufacturer’s instructions.

CDK12–cyclin K and DDB1 = molecular target: T2, CDK12–cyclin K and DDB1 (Homo sapiens, UniProt Q16531+Q9NYV4, K965R); test: TR-FRET ternary complex formation assay (compound titration); format: binding
T2 construct: His6–CDK12 (a.a. 713–1,052); full-length or beta-propeller B domain deletion (ΔBPB: a.a. 396–705 deleted) constructs of His6–DDB1ΔBPB, StrepII–Avi–DDB1, or His6–Spy–DDB1; made in house; host or cells: Trichoplusia ni High Five insect cells (baculovirus)
Method in brief: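 Delayed (70 μs) time-resolved read; FRET computed as 520 nm over 490 nm emission.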

CDK12–cyclin K = CDK12–cyclin K (Homo sapiens, UniProt Q9NYV4); test: Lanthascreen kinase binding assay, CDK12; settings: for Lanthascreen raw signal, sheet CDK12: series r1, duplicates
Method: as §1

CDK2–cyclin A = molecular target: T3, CDK2–cyclin A (Homo sapiens, UniProt P24941); test: Lanthascreen kinase binding assay, CDK2; settings: for Lanthascreen signal, sheet CDK2: raw replicates, experiment r1-r11
T3 construct: purchased Thermo Fisher
Method: as §1

T2 sequence (Q9NYV4 713-1052 K965R): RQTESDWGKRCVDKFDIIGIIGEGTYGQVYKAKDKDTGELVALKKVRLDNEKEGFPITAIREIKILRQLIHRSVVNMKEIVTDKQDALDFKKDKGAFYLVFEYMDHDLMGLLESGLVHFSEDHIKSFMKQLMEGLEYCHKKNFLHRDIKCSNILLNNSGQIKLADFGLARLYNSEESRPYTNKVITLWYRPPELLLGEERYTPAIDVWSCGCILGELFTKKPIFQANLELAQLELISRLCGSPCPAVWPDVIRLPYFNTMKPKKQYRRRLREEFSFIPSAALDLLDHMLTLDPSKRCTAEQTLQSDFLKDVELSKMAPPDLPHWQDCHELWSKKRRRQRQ
T2 sequence (O75909 1-267 partner): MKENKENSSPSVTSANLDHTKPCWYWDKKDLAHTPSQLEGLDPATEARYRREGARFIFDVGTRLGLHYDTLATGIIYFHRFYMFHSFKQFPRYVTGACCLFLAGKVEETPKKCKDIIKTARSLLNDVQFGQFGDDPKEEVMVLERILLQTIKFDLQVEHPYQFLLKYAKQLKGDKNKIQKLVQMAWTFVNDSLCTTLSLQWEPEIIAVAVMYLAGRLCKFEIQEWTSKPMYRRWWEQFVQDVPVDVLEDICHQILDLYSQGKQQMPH
T2 sequence (Q16531 whole entry): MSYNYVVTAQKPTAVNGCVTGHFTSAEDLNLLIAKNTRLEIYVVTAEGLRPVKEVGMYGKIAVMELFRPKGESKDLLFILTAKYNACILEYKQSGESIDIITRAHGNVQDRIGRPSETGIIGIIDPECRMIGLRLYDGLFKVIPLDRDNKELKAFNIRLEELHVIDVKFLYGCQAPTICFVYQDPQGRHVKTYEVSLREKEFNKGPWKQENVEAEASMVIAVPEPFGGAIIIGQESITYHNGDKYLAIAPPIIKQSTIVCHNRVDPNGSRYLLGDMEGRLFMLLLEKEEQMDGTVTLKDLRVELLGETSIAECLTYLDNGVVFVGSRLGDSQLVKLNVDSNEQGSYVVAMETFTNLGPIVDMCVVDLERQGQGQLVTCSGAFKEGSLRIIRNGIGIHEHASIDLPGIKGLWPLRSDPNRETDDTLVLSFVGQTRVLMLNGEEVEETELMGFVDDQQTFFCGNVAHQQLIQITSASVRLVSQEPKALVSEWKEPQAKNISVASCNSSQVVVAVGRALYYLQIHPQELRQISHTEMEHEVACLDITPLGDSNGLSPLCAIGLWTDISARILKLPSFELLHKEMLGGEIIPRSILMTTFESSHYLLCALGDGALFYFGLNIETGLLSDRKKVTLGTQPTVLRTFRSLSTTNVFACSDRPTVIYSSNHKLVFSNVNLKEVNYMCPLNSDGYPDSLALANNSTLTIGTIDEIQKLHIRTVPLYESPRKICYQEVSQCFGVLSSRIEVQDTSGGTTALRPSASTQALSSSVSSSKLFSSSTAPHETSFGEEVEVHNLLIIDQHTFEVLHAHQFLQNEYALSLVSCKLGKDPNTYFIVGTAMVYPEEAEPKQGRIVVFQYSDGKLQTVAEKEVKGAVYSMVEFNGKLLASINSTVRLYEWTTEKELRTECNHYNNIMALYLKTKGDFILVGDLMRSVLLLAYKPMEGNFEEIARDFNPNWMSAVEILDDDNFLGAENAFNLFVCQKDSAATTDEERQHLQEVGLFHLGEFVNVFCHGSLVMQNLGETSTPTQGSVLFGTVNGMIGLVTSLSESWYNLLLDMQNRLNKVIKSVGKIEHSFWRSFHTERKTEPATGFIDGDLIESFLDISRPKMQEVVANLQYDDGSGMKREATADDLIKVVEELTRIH
T1 sequence (P50750 whole entry): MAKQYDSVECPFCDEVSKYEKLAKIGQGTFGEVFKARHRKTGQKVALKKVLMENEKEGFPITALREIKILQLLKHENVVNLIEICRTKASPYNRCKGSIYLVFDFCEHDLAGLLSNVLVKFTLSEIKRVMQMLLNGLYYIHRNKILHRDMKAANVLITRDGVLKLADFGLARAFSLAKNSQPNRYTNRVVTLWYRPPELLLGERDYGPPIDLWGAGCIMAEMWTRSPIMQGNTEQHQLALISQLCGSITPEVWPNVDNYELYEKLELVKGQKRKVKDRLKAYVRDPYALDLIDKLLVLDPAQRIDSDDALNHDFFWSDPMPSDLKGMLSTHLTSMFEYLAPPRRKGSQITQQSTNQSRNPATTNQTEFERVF
T1 sequence (O60563 whole entry partner): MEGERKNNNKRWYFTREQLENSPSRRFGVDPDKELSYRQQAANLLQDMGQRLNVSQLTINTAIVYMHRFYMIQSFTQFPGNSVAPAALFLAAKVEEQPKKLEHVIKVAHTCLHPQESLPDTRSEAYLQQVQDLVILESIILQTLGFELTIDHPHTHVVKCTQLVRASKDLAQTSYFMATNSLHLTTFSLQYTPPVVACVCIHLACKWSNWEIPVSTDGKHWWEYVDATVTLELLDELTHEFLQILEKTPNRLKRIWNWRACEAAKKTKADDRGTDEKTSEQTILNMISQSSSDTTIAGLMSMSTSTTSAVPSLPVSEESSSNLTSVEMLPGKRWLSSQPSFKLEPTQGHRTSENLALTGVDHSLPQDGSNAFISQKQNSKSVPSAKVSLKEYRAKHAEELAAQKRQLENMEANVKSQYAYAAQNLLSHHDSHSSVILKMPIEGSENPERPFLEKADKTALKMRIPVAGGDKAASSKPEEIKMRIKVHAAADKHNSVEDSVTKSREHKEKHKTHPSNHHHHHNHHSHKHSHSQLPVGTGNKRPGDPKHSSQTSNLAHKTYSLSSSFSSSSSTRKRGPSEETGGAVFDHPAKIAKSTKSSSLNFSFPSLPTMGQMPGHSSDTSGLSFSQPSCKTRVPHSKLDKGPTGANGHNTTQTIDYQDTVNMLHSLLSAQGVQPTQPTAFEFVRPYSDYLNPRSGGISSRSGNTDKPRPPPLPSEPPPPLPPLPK
Sequence of CDK12–cyclin K (Q9NYV4 713-1052): as the sequence (Q9NYV4 713-1052 K965R) above, with R253K counted along it
Sequence of CDK12–cyclin K (O75909 1-267 partner limits assumed): as the sequence (O75909 1-267 partner) above

Structure (SMILES): CN1CCN(c2nc(NCc3nc4c(F)c(F)ccc4[nH]3)n3ncc(Br)c3n2)CC1 [DS71]
- DC50 ([1]; log value): 0.004 µM
- DC50 ([1]; read-out: DC50): 0.004 µM
- EC50 (HEK293T cells; Homo sapiens, HEK-293T, HEK293T viability, 72 h, compound alone, read-out: Cellular assays EC50): 0.01 µM
- Toxicity rescue (HEK293T cells; MLN4924-mediated cytotoxicity rescue, 10 µM used where n.d.): 610%
- IC50 (CDK9–cyclin T; Supplementary Table 2, read-out: Lanthascreen IC50 [nM] CDK9): 684 nM
- Lanthascreen TR-FRET signal (raw ratio), sheet CDK9 (CDK9–cyclin T; compound 1.02544 nM): 0.01471 and 0.01339
- Lanthascreen TR-FRET signal (raw ratio), sheet CDK9 (CDK9–cyclin T; compound 3.15521 nM): 0.01367 and 0.0125
- Lanthascreen TR-FRET signal (raw ratio), sheet CDK9 (CDK9–cyclin T; compound 9.46563 nM): 0.01267 and 0.01475
- Lanthascreen TR-FRET signal (raw ratio), sheet CDK9 (CDK9–cyclin T; compound 31.5521 nM): 0.01209 and 0.01181
- Lanthascreen TR-FRET signal (raw ratio), sheet CDK9 (CDK9–cyclin T; compound 99.3891 nM): 0.01168 and 0.01283
- Lanthascreen TR-FRET signal (raw ratio), sheet CDK9 (CDK9–cyclin T; compound 315.521 nM): 0.01175 and 0.01042
- Lanthascreen TR-FRET signal (raw ratio), sheet CDK9 (CDK9–cyclin T; compound 3155.21 nM): 0.005807 and 0.004691
- Lanthascreen TR-FRET signal (raw ratio), sheet CDK9 (CDK9–cyclin T; compound 10002 nM): 0.004107 and 0.003744
- TR-FRET signal at compound concentration 0.468 nM (CDK12–cyclin K and DDB1; compound concentration 0.468 nM, raw replicate titration data): 0.3328 and 0.3098
- TR-FRET signal at compound concentration 2.16 nM (CDK12–cyclin K and DDB1; compound concentration 2.16 nM, raw replicate titration data): 0.4001 and 0.3765
- TR-FRET signal at compound concentration 3.6 nM (CDK12–cyclin K and DDB1; compound concentration 3.6 nM, raw replicate titration data): 0.5431 and 0.4961
- TR-FRET signal at compound concentration 7.92001 nM (CDK12–cyclin K and DDB1; compound concentration 7.92001 nM, raw replicate titration data): 0.8328 and 0.7643
- TR-FRET signal at compound concentration 15.84 nM (CDK12–cyclin K and DDB1; compound concentration 15.84 nM, raw replicate titration data): 1.412 and 1.246
- TR-FRET signal at compound concentration 30.96 nM (CDK12–cyclin K and DDB1; compound concentration 30.96 nM, raw replicate titration data): 2.416 and 2.183
- TR-FRET signal at compound concentration 62.6401 nM (CDK12–cyclin K and DDB1; compound concentration 62.6401 nM, raw replicate titration data): 3.349 and 3.281
- TR-FRET signal at compound concentration 125.28 nM (CDK12–cyclin K and DDB1; compound concentration 125.28 nM, raw replicate titration data): 3.867 and 3.698
- TR-FRET signal at compound concentration 244.8 nM (CDK12–cyclin K and DDB1; compound concentration 244.8 nM, raw replicate titration data): 3.9597 and 3.8541
- TR-FRET signal at compound concentration 993.601 nM (CDK12–cyclin K and DDB1; compound concentration 993.601 nM, raw replicate titration data): 3.967 and 3.873
- TR-FRET signal at compound concentration 2001.6 nM (CDK12–cyclin K and DDB1; compound concentration 2001.6 nM, raw replicate titration data): 4.005 and 3.884
- EC50 (CDK12–cyclin K and DDB1; in vitro complex formation, 50 nM CDK12–cyclin K, 100 nM DDB1, text and figures, read-out: TR-FRET EC50): 0.028 ± 0.001 µM
- EC50 (CDK12–cyclin K and DDB1; sheet MOESM7, read-out: log TR-FRET EC50 (converted)): 0.0276 µM
- EC50 (CDK12–cyclin K and DDB1; source data sheet correlations, read-out: TR-FRET EC50): 0.0276 µM
- IC50 (CDK12–cyclin K; Supplementary Table 2, read-out: Lanthascreen IC50 [nM] CDK12): 134 nM
- Lanthascreen raw signal, sheet CDK12 (CDK12–cyclin K; compound 1.02544 nM): 0.006087 and 0.009032
- Lanthascreen raw signal, sheet CDK12 (CDK12–cyclin K; compound 3.15521 nM): 0.01061 and 0.007755
- Lanthascreen raw signal, sheet CDK12 (CDK12–cyclin K; compound 9.46563 nM): 0.009135 and 0.006327
- Lanthascreen raw signal, sheet CDK12 (CDK12–cyclin K; compound 31.5521 nM): 0.007705 and 0.007896
- Lanthascreen raw signal, sheet CDK12 (CDK12–cyclin K; compound 99.3891 nM): 0.007199 and 0.007003
- Lanthascreen raw signal, sheet CDK12 (CDK12–cyclin K; compound 315.521 nM): 0.006511 and 0.005836
- Lanthascreen raw signal, sheet CDK12 (CDK12–cyclin K; compound 3155.21 nM): 0.006388 and 0.004562
- Lanthascreen raw signal, sheet CDK12 (CDK12–cyclin K; compound 10002 nM): 0.005868 and 0.005096
- Lanthascreen signal, sheet CDK2 (CDK2–cyclin A; Compound 1.02544 nM): 0.009545 and 0.009565
- Lanthascreen signal, sheet CDK2 (CDK2–cyclin A; Compound 3.15521 nM): 0.01077 and 0.01025
- Lanthascreen signal, sheet CDK2 (CDK2–cyclin A; Compound 9.46563 nM): 0.009718 and 0.00939
- Lanthascreen signal, sheet CDK2 (CDK2–cyclin A; Compound 31.5521 nM): 0.009822 and 0.01021
- Lanthascreen signal, sheet CDK2 (CDK2–cyclin A; Compound 99.3891 nM): 0.009696 and 0.01058
- Lanthascreen signal, sheet CDK2 (CDK2–cyclin A; Compound 315.521 nM): 0.0105 and 0.00942
- Lanthascreen signal, sheet CDK2 (CDK2–cyclin A; Compound 3155.21 nM): 0.01064 and 0.008324
- Lanthascreen signal, sheet CDK2 (CDK2–cyclin A; Compound 10002 nM): 0.005535 and 0.005659
- IC50 (CDK2–cyclin A; Lanthascreen, average, Extended Data Fig. 8, read-out: CDK2 IC50): > 10000 nM
- IC50 (CDK2–cyclin A; Supplementary Table 2, read-out: Lanthascreen IC50 [nM] CDK2): > 10000 nM
